Each structure is given as a SMILES string. Bounds are passed on as bounds.

The first data set concerns the target T1, ENL YEATS domain (association with H3K27cr) (Homo sapiens, UniProt Q03111).
T1 sequence (Q03111 1-148): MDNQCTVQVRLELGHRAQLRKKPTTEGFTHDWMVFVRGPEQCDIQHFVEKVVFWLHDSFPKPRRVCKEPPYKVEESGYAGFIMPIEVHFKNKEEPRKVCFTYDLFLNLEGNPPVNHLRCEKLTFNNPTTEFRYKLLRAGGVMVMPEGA
Put plainly: biochemical. As to conditions: ENL (YEATS)-H3K27cr HTRF (IC50, μM), Table 1. (In TR-FRET formats the signal depends on donor and acceptor labels being close together.)
The term IC50 denotes the concentration that inhibits the measured activity by half. As for `CC1CC(NC(=O)c2ccc3nc(-c4ccccc4)cn3c2)C1` (stereo not shown) [Compound 87], the IC50 was determined as 4.6 µM.
`COC1CCN(CCNS(=O)(=O)Nc2cccc(-c3cn4cc(C(=O)NC5CCC5)ccc4n3)c2)CC1` [Compound 94] yielded an IC50 of 0.197 µM.
Turning to `O=C(NC1CCC1)c1ccc2nc(-c3cccc(NS(=O)(=O)NCCN4CCCCC4=O)c3)cn2c1` [Compound 95], the IC50 came to 0.21 µM.
`CC1CCN(CCNS(=O)(=O)Nc2cccc(-c3cn4cc(C(=O)NC5CCC5)ccc4n3)c2)CC1` [Compound 100]: the IC50 is 0.029 µM.
`CC1(C)CCN(CCNS(=O)(=O)Nc2cccc(-c3cn4cc(C(=O)NC5CCC5)ccc4n3)c2)CC1` [Compound 101] returned a 50% inhibitory concentration (IC50) of 0.062 µM.
Compound `O=C(CCN1CCCCC1)Nc1cccc(-c2cn3cc(C(=O)NC4CCC4)ccc3n2)c1` [Compound 102] gave a half-inhibitory concentration (IC50) of 0.478 µM.
In the case of `O=C(CCCCN1CCCCC1)Nc1cccc(-c2cn3cc(C(=O)NC4CCC4)ccc3n2)c1` [Compound 103], the IC50 was 0.696 µM.
Regarding `O=C(NC1CCC1)c1ccc2nc(-c3cccc(NS(=O)(=O)CCCN4CCCCC4)c3)cn2c1` [Compound 104], 0.134 µM corresponded to half-maximal inhibition (IC50).
The same measure, in the same setting: the figure for `O=C(NC1CCC1)c1ccc2nc(-c3cccc(S(=O)(=O)NCCCN4CCCCC4)c3)cn2c1` [Compound 105] is 0.84 µM; for `O=C(N[C@@H]1CC[C@@H]1c1ccccc1)c1ccc2nc(-c3ccccc3)cn2c1` [Compound 115] it is greater than 50 µM.
On to `CC(C)C1CC(NC(=O)c2ccc3nc(-c4ccccc4)cn3c2)C1` (stereo not shown) [Compound 119], for which the IC50 is greater than 50 µM.
The same measure, in the same setting: the figure for `CC(C)(C)C1CC(NC(=O)c2ccc3nc(-c4ccccc4)cn3c2)C1` (stereo not shown) [Compound 120] is greater than 50 µM.
The same measure, in the same setting: next, `Cc1ccc(C2CCC2NC(=O)c2ccc3nc(-c4ccccc4)cn3c2)c(C)c1` (stereo not shown) [Compound 123]: greater than 50 µM.

Staying with this data set, now noted: ENL (YEATS)-H3K27cr HTRF (IC50, μM), Table 2.
With `CC1CC(NC(=O)c2ccc3nc(-c4ccccc4)cn3c2)C1` (stereo not shown) [Compound 87], the IC50 was determined as 4.6 µM.
As to `COC1CCN(CCNS(=O)(=O)Nc2cccc(-c3cn4cc(C(=O)NC5CCC5)ccc4n3)c2)CC1` [Compound 94], the IC50 stood at 0.197 µM.
As for `O=C(NC1CCC1)c1ccc2nc(-c3cccc(NS(=O)(=O)NCCN4CCCCC4=O)c3)cn2c1` [Compound 95], the IC50 is 0.21 µM.
Compound `CC1CCN(CCNS(=O)(=O)Nc2cccc(-c3cn4cc(C(=O)NC5CCC5)ccc4n3)c2)CC1` [Compound 100] gave a concentration for half-maximal inhibition (IC50) of 0.029 µM.
In turn, `CC1(C)CCN(CCNS(=O)(=O)Nc2cccc(-c3cn4cc(C(=O)NC5CCC5)ccc4n3)c2)CC1` [Compound 101] gave an IC50 of 0.062 µM.
`O=C(CCN1CCCCC1)Nc1cccc(-c2cn3cc(C(=O)NC4CCC4)ccc3n2)c1` [Compound 102]: the IC50 was found to be 0.478 µM.
`O=C(CCCCN1CCCCC1)Nc1cccc(-c2cn3cc(C(=O)NC4CCC4)ccc3n2)c1` [Compound 103] had an IC50 of 0.696 µM.
On the same count and under the same terms, the figure for `O=C(NC1CCC1)c1ccc2nc(-c3cccc(NS(=O)(=O)CCCN4CCCCC4)c3)cn2c1` [Compound 104] is 0.134 µM; for `O=C(NC1CCC1)c1ccc2nc(-c3cccc(S(=O)(=O)NCCCN4CCCCC4)c3)cn2c1` [Compound 105] it is 0.84 µM; for `O=C(N[C@@H]1CC[C@@H]1c1ccccc1)c1ccc2nc(-c3ccccc3)cn2c1` [Compound 115] it is greater than 50 µM.
In the case of `CC(C)C1CC(NC(=O)c2ccc3nc(-c4ccccc4)cn3c2)C1` (stereo not shown) [Compound 119], the IC50 was greater than 50 µM.
The compound `CC(C)(C)C1CC(NC(=O)c2ccc3nc(-c4ccccc4)cn3c2)C1` (stereo not shown) [Compound 120] gave a 50% inhibitory concentration (IC50) greater than 50 µM.
Compound `Cc1ccc(C2CCC2NC(=O)c2ccc3nc(-c4ccccc4)cn3c2)c(C)c1` (stereo not shown) [Compound 123] came in with an IC50 greater than 50 µM.

Tested on in the next data set: not listed separately
Kind of data set: Half-life in mouse liver microsomes. In kind it is in vitro ADME. As to conditions: read-out: t1/2 (min) mouse liver microsomes.
As for `COC1CCN(CCNS(=O)(=O)Nc2cccc(-c3cn4cc(C(=O)NC5CCC5)ccc4n3)c2)CC1` [Compound 94], the half-life came to 5.23 min.
Regarding `O=C(NC1CCC1)c1ccc2nc(-c3cccc(NS(=O)(=O)NCCN4CCCCC4=O)c3)cn2c1` [Compound 95], the half-life was determined as 6.07 min.
In the case of `CC1CCN(CCNS(=O)(=O)Nc2cccc(-c3cn4cc(C(=O)NC5CCC5)ccc4n3)c2)CC1` [Compound 100], the half-life came to 4.04 min.
Regarding `CC1(C)CCN(CCNS(=O)(=O)Nc2cccc(-c3cn4cc(C(=O)NC5CCC5)ccc4n3)c2)CC1` [Compound 101], the half-life turned out to be 2.29 min.
For the compound `O=C(CCN1CCCCC1)Nc1cccc(-c2cn3cc(C(=O)NC4CCC4)ccc3n2)c1` [Compound 102], the half-life amounted to 34.1 min.
On to `O=C(CCCCN1CCCCC1)Nc1cccc(-c2cn3cc(C(=O)NC4CCC4)ccc3n2)c1` [Compound 103], for which the half-life worked out at 13.1 min.
Consider `O=C(NC1CCC1)c1ccc2nc(-c3cccc(NS(=O)(=O)CCCN4CCCCC4)c3)cn2c1` [Compound 104], for which the half-life came to 14.5 min.
As for `O=C(NC1CCC1)c1ccc2nc(-c3cccc(S(=O)(=O)NCCCN4CCCCC4)c3)cn2c1` [Compound 105], the half-life was 9.7 min.

Still in this data set, the particulars now being: without NADPH, read-out: t1/2 mouse (min liver microsomes (without NADPH)).
In the case of `COC1CCN(CCNS(=O)(=O)Nc2cccc(-c3cn4cc(C(=O)NC5CCC5)ccc4n3)c2)CC1` [Compound 94], the half-life came to 774 min.
Turning to `O=C(NC1CCC1)c1ccc2nc(-c3cccc(NS(=O)(=O)NCCN4CCCCC4=O)c3)cn2c1` [Compound 95], the half-life came out at 504 min.
Consider `CC1CCN(CCNS(=O)(=O)Nc2cccc(-c3cn4cc(C(=O)NC5CCC5)ccc4n3)c2)CC1` [Compound 100], for which the half-life came to 463 min.
For the compound `CC1(C)CCN(CCNS(=O)(=O)Nc2cccc(-c3cn4cc(C(=O)NC5CCC5)ccc4n3)c2)CC1` [Compound 101], the half-life was 405 min.
Consider `O=C(CCN1CCCCC1)Nc1cccc(-c2cn3cc(C(=O)NC4CCC4)ccc3n2)c1` [Compound 102], for which the half-life was 138 min.
For `O=C(CCCCN1CCCCC1)Nc1cccc(-c2cn3cc(C(=O)NC4CCC4)ccc3n2)c1` [Compound 103], the half-life was found to be 16.1 min.

In another data set the target is T2, ENL(YEATS)-HiBiT (Homo sapiens, UniProt Q03111).
T2 sequence (Q03111 1-138 limits assumed): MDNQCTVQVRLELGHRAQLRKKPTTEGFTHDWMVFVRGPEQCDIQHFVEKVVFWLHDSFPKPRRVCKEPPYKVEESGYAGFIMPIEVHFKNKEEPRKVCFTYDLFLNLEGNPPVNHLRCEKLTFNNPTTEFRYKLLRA
Assay: not given
The note with it: read-out: ENL YEATS CETSA (IC50); Table 2; OCI/AML-2 cells expressing ENL(YEATS)-HiBiT. In general terms: HiBiT is a short tag that completes a luciferase, so light tracks the accessible tagged protein.
Regarding `CC1CC(NC(=O)c2ccc3nc(-c4ccccc4)cn3c2)C1` (stereo not shown) [Compound 87], the IC50 is greater than 50000 nM.
`O=C(N[C@@H]1CC[C@@H]1c1ccccc1)c1ccc2nc(-c3ccccc3)cn2c1` [Compound 115]: the 50% inhibitory concentration (IC50) was greater than 50000 nM.
Same read-out and setting: the figure for `CC(C)C1CC(NC(=O)c2ccc3nc(-c4ccccc4)cn3c2)C1` (stereo not shown) [Compound 119] is greater than 50000 nM; for `CC(C)(C)C1CC(NC(=O)c2ccc3nc(-c4ccccc4)cn3c2)C1` (stereo not shown) [Compound 120] it is greater than 50000 nM; for `Cc1ccc(C2CCC2NC(=O)c2ccc3nc(-c4ccccc4)cn3c2)c(C)c1` (stereo not shown) [Compound 123] it is greater than 50000 nM.

Another data set addresses T2, ENL(YEATS)-HiBiT. Put plainly: cell-based.
Conditions: not given
`CC1CC(NC(=O)c2ccc3nc(-c4ccccc4)cn3c2)C1` (stereo not shown) [Compound 87] came in with an IC50 greater than 50000 nM.
In the case of `COC1CCN(CCNS(=O)(=O)Nc2cccc(-c3cn4cc(C(=O)NC5CCC5)ccc4n3)c2)CC1` [Compound 94], the IC50 was found to be 1520 nM.
The same measure, in the same setting: the figure for `O=C(NC1CCC1)c1ccc2nc(-c3cccc(NS(=O)(=O)NCCN4CCCCC4=O)c3)cn2c1` [Compound 95] is 1050 nM.
Take `CC1CCN(CCNS(=O)(=O)Nc2cccc(-c3cn4cc(C(=O)NC5CCC5)ccc4n3)c2)CC1` [Compound 100]: the half-inhibitory concentration (IC50) amounted to 238 nM.
In turn, `CC1(C)CCN(CCNS(=O)(=O)Nc2cccc(-c3cn4cc(C(=O)NC5CCC5)ccc4n3)c2)CC1` [Compound 101] came in with an IC50 of 297 nM.
Turning to `O=C(CCN1CCCCC1)Nc1cccc(-c2cn3cc(C(=O)NC4CCC4)ccc3n2)c1` [Compound 102], 536 nM corresponded to half-maximal inhibition (IC50).
`O=C(CCCCN1CCCCC1)Nc1cccc(-c2cn3cc(C(=O)NC4CCC4)ccc3n2)c1` [Compound 103]: the IC50 was determined as 2200 nM.
Take `O=C(NC1CCC1)c1ccc2nc(-c3cccc(NS(=O)(=O)CCCN4CCCCC4)c3)cn2c1` [Compound 104]: the IC50 was 1030 nM.
The same measure, in the same setting: the figure for `O=C(NC1CCC1)c1ccc2nc(-c3cccc(S(=O)(=O)NCCCN4CCCCC4)c3)cn2c1` [Compound 105] is 3240 nM.
With `O=C(N[C@@H]1CC[C@@H]1c1ccccc1)c1ccc2nc(-c3ccccc3)cn2c1` [Compound 115], the IC50 was greater than 50000 nM.
Compound `CC(C)C1CC(NC(=O)c2ccc3nc(-c4ccccc4)cn3c2)C1` (stereo not shown) [Compound 119] gave a concentration for half-maximal inhibition (IC50) greater than 50000 nM.
The same measure, in the same setting: next, `CC(C)(C)C1CC(NC(=O)c2ccc3nc(-c4ccccc4)cn3c2)C1` (stereo not shown) [Compound 120]: greater than 50000 nM; `Cc1ccc(C2CCC2NC(=O)c2ccc3nc(-c4ccccc4)cn3c2)c(C)c1` (stereo not shown) [Compound 123]: greater than 50000 nM.

The values above are taken from patent publication US20220274980A1, “PHARMACOLOGICAL INHIBITORS OF THE ENL YEATS DOMAIN” (priority 2019, published 2022).
